# Reference: patent US10143688B2, “Mesylic acid salt of acylthiourea compound, crystal of the same, and process for producing these” (priority 2015, dated 2018)
# Legend:
# [1] = Solubility measurement (solubility measuring method of The Japanese Pharmacopoeia); details: 37° C.
# [2] = Solid stability test (purity by liquid chromatography, XRD, TG-DTA after storage); type: physicochemical; details: 1 month at 40° C. (open system), 40° C. (humidity, 75%), or 60° C. (open system)
# Experimental: An examination by liquid chromatography was made under the following test conditions.
# Apparatus: Hitachi L-2455
# Mobile phase A: 10 mM aqueous Na2HPO4 solution (pH, 6.5)
# Mobile phase B: acetonitrile
# Column: GL Science Inertsil ODS-3; 4.6×150 mm; S=5 μm
# Measuring wavelength: 220 nm
# (open system), 40° C. (humidity, 75%), or 60° C. (open system). Thereafter, the crystals were examined for purity by liquid chromatography. As a result, the change in purity through the test was 0.1% or less under all those conditions.
smiles,measurement,setting,value
"CNC(=O)c1cc2c(Oc3ccc(NC(=S)NC(=O)Cc4ccccc4)cc3F)ccnc2cc1OC.CS(=O)(=O)O [Example 1, mesylic acid salt of 4-(2-fluoro-4-(3-(2-phenylacetyl)thioureido)phenoxy)-7-methoxy-N-methylquinoline-6-carboxamide]","Solubility, Taurocholic acid",[1]; 20-mM aqueous taurocholic acid solution,120 µg/mL
same,"Solubility, FeSSIF",[1]; FeSSIF,11 µg/mL
same,"Solubility, Dissolution-test second liquid",[1]; dissolution-test second liquid according to The Japanese Pharmacopoeia,1.0 µg/mL
same,"Solubility, Purified water",[1]; purified water,35 µg/mL
same,change in examinations by XRD and TG-DTA,[2],no marked change
same,change in purity through the test,[2]; all those conditions,≤ 0.1%
